Active and inactive are the calls of the source. How the calls were made is not given here.
What follows are compounds tested against glucose-6-phosphate dehydrogenase-6-phosphogluconolactonase (Plasmodium falciparum 3D7) (assay: inhibition of P. falciparum G6PD activity – biochemical, kinetic NADPH detection, orthogonal assay, dose response (AID 540269)). Settings: purified PfG6PD-6PGL.
For `COc1ccc(NC(=S)N(CCC(C)C)C2CCN(C(C)C)CC2)cc1Cl`, the IC50 was 56.6 µM. In the case of `O=C1C(c2cc(=O)c3ccccc3[nH]2)=C(O)c2ccccc21`, the IC50 is reported as > 80 µM (inactive). `O=C(Cn1sc2ccccc2c1=O)NC12CC3CC(CC(C3)C1)C2` gave an IC50 of 13.5 µM. For `O=C(COC(=O)c1cnccn1)c1ccc([N+](=O)[O-])cc1`, the IC50 was > 80 µM (inactive). With `COC(=O)CCC(=O)OC1(C)C(=O)C2=CN(c3ccccc3)C(c3ccc(OC)cc3)=CC2=C(Br)C1=O` (stereo unspecified) the IC50 was > 80 µM (inactive). For `CN(C)c1ccc(/C=C/c2ccc3c4ccccc4ccc3[n+]2-c2ccccc2)cc1`, the IC50 was 44.3 µM. With `CCN1CCN(C(=S)c2ccc(O)cc2)CC1` the IC50 was > 80 µM (inactive). In the case of `O=c1[nH]nc(CNc2ccc(O)cc2)c2ccccc12`, the IC50 is reported as > 80 µM (inactive). `CC1CCc2[nH]c3ccc(C(=O)N(C)CC(=O)Nc4ccccc4C(F)(F)F)cc3c2C1` (stereo unspecified) was tested, and the IC50 was > 80 µM (inactive). `COc1ccc(/C=C/c2nc3ccccc3n2C)cc1` gave an IC50 of 17.7 µM. In the case of `Cc1cc(C)c2c(=O)n(CC(=O)Nc3ccc(Br)c(C)c3)sc2n1`, the IC50 is reported as 58.5 µM. `CC1=CC(=NOC(=O)/C=C/c2ccccc2)C=C(C)C1=O` was tested, and the IC50 was > 80 µM (inactive). `O=C(NCCCN1CCOCC1)c1sc2cc([N+](=O)[O-])ccc2c1Cl` was tested, and the IC50 was 38.5 µM. In the case of `CCOC(=O)c1ccc(-n2c(N)c(C(=O)NCC3CCCO3)sc2=S)cc1` (stereo unspecified), the IC50 is reported as > 80 µM (inactive). In the case of `O=C(CNC(=O)c1cccs1)OCC(=O)c1ccc([N+](=O)[O-])cc1`, the IC50 is reported as > 80 µM (inactive). In the case of `Cc1nnc(N/N=C/c2ccc(-c3ccccc3F)o2)n1N`, the IC50 is reported as 32.1 µM. Compound `CC(C)(C)c1ccc(O)c(O)c1` has an IC50 of 48.6 µM. `CCOC(=O)c1sc(NC(=O)CSc2nnc(Cc3ccccc3)o2)c(C#N)c1C` was tested, and the IC50 was > 80 µM (inactive). `Cc1no[n+]([O-])c1COc1cccc(/C=N/Nc2nncn2N)c1` was tested, and the IC50 was 30.5 µM. With `C=CCSc1nnc(NC(=O)c2ccc(Cl)nc2)s1` the IC50 was > 80 µM (inactive). In the case of `Cc1ccc(-c2nc(N3CCOCC3)s[n+]2-c2ccccc2)cc1`, the IC50 is reported as > 80 µM (inactive). With `O=S(=O)(Nc1cc(Sc2ncn[nH]2)c(O)c2ccccc12)c1ccccc1` the IC50 was 23.9 µM. `Cc1cc(C)nc(/N=C(\N)Nc2ccccc2-c2ccccc2)n1` was tested, and the IC50 was > 80 µM (inactive). `Cc1ccc(S(=O)(=O)N(C(=O)c2ccncc2)c2ccc(OC(=O)c3ccncc3)c3ccccc23)cc1` gave an IC50 of 55.7 µM. With `Clc1cccc(Cl)c1CNc1ccc(N2CCCC2)cc1` the IC50 was 60 µM. `Cc1ccc(C(=O)Nc2nnc(S(=O)(=O)N3CCC(C)CC3)s2)cc1` showed an IC50 of 24.1 µM. `Oc1ccc(NCc2ccccc2OCc2ccccc2)cc1` gave an IC50 of 53.9 µM. With `COc1cc(OC)c(C2CC(=O)N3CN(c4ccccc4)CSC3=C2C#N)cc1OC` (stereo unspecified) the IC50 was > 80 µM (inactive). With `c1cc2c(cc1NC1CCCCCC1)OCO2` the IC50 was > 80 µM (inactive). With `Cc1ccc(/C=C/C(=O)NCCc2cccc(Cl)c2)o1` the IC50 was > 80 µM (inactive). `Cc1cc(C)c[n+](C2=C([O-])c3ccccc3C(=O)/C2=N\S(=O)(=O)c2cccs2)c1` was tested, and the IC50 was > 80 µM (inactive). `CC(=O)Nc1ccc2c(=O)n(-c3ccccc3)sc2c1` showed an IC50 of 15.6 µM. For `CCC1(CC)Cc2ccccc2C(N)=C1C#N`, the IC50 was > 80 µM (inactive). With `O=C(COC(=O)c1ccc2c(c1[N+](=O)[O-])C(=O)c1ccccc1C2=O)NC1CC1` the IC50 was > 80 µM (inactive). `CN(C)c1ccc(C=c2c3cc([N+](=O)[O-])ccc3n3c2cc(-c2ccccc2)[n+]3C)cc1` gave an IC50 of 35.1 µM. `CCOC(=O)Cc1cc(=O)n2[nH]c(C(C)(C)C)cc2n1` was tested, and the IC50 was > 80 µM (inactive). `O=C(Nc1nnc(S(=O)(=O)N2CCOCC2)s1)c1ccc(F)cc1` showed an IC50 of 56.9 µM. In the case of `CC(C)Cn1c([N+](=O)[O-])nc2c1c(=O)[nH]c(=O)n2C`, the IC50 is reported as > 80 µM (inactive). In the case of `Cc1ccc(NC(=O)c2cc(N3C(=O)C=CC3=O)ccc2Cl)cc1C`, the IC50 is reported as 43.5 µM. For `CCN=c1scc(C)n1/N=C/c1ccc(O)c(O)c1O`, the IC50 was 39.2 µM. For `O=C(CN1CCN(c2ccc(O)cc2)CC1)Nc1cc(S(=O)(=O)N2CCOCC2)ccc1Cl`, the IC50 was > 80 µM (inactive). `CC(NC1=CC(=O)c2cccnc2C1=O)C(O)c1ccccc1` (stereo unspecified) gave an IC50 of 45.1 µM. `CC(C)(C)NC(=O)COc1ccc(CNc2ccc3[nH]c(=O)[nH]c3c2)cc1` was tested, and the IC50 was 10.4 µM. `COc1cc(N)c2ncccc2c1OC` was tested, and the IC50 was > 80 µM (inactive). Compound `COc1cc(N=c2ssnc2Cl)c(OC)cc1Cl` has an IC50 of 36.8 µM. In the case of `O=C(Nc1ccc(N2CCCC2)cc1)c1cccc(-c2cc3ccccc3oc2=O)c1`, the IC50 is reported as > 80 µM (inactive). For `CCN(CC)c1ccc(C(=C2C=CC(=[N+](CC)CC)C=C2)c2ccccc2)cc1`, the IC50 was > 80 µM (inactive). With `COc1cccc(CNc2ccc3[nH]c(=O)[nH]c3c2)c1OCc1ccc(F)cc1` the IC50 was > 80 µM (inactive). `O=c1c2ccccc2[se]n1-c1ccccc1` was tested, and the IC50 was 22.1 µM. In the case of `CC(C)(C)c1ccc(C(=O)Nc2sc3c(c2C(=O)O)CCC3)cc1`, the IC50 is reported as 12.7 µM. For `CC(NC(=O)c1sc2cc([N+](=O)[O-])ccc2c1Cl)C(C)(C)C` (stereo unspecified), the IC50 was > 80 µM (inactive). `O=C1C=CC(=O)N1CCNc1ncc(C(F)(F)F)cc1Cl` was tested, and the IC50 was 34.8 µM. With `Oc1ccc(/C=N/N=C(c2ccccc2)c2ccccc2)c(O)c1O` the IC50 was 54.6 µM. For `O=C(O)C(Cc1ccccc1)N1C(=O)C=CC1=O` (stereo unspecified), the IC50 was 36.2 µM. `CCN(CC)C(=O)c1c(C)[nH]c(=S)c(C#N)c1-c1ccco1` was tested, and the IC50 was > 80 µM (inactive). `CCN1CCCC1CNC(=O)c1ccc2c(c1)NC(=O)/C(=C\c1ccccc1Cl)S2` (stereo unspecified) was tested, and the IC50 was 8.01 µM. In the case of `Cc1cc(O)c(C(C)C)cc1N=Cc1ccc(N(C)C)cc1`, the IC50 is reported as > 80 µM (inactive). For `CC(SCC(=O)Nc1ccccc1)c1nc2ccccc2c(=O)[nH]1` (stereo unspecified), the IC50 was > 80 µM (inactive). `c1cncc(CNc2ccc3c(c2)OCO3)c1` was tested, and the IC50 was > 80 µM (inactive). With `O=C(Cn1sc2ccccc2c1=O)Nc1ccc(Cl)cc1` the IC50 was 16 µM. `CCN1/C(=C/C=C/C=C/C=C/c2sc3ccccc3[n+]2CC)Sc2ccccc21` was tested, and the IC50 was > 80 µM (inactive). `COc1ccc(C(=O)c2c(C(F)(F)F)oc3c2C(=O)c2ccccc2C3=O)cc1` was tested, and the IC50 was > 80 µM (inactive). `O=C(CNC(=O)c1cccs1)NCC(=O)OCC(=O)c1ccc([N+](=O)[O-])cc1` was tested, and the IC50 was 62.9 µM. In the case of `COc1cccc(C2(c3cccc(OC)c3)CC2C(=O)Nc2ccc(F)cc2)c1` (stereo unspecified), the IC50 is reported as > 80 µM (inactive). For `Cn1c(=O)[nH]c(=O)c2c1nc([N+](=O)[O-])n2Cc1ccccc1`, the IC50 was > 80 µM (inactive). `O=C1C=CC(=O)N1c1ccc(-c2nc3ccccc3o2)cc1` was tested, and the IC50 was > 80 µM (inactive). `Cc1ccc(NS(=O)(=O)c2ccccc2Cl)c2c1CC(C)(C)O2` was tested, and the IC50 was > 80 µM (inactive). `CCN(CC)c1ccc(NC(=O)c2ccccc2Br)cc1S(=O)(=O)Nc1ccccc1OC` showed an IC50 of 59.2 µM. `CCOC(=O)c1c2ccc(OCC(=O)NN)cc2n2ccccc12` was tested, and the IC50 was 9.4 µM. `CN(C)c1ccc2nc3ccc(=O)cc-3sc2c1` was tested, and the IC50 was > 80 µM (inactive). In the case of `O=C1Nc2ccccc2C(=O)C1(Cl)Cc1ccccc1` (stereo unspecified), the IC50 is reported as > 80 µM (inactive). In the case of `Cc1noc(C(=O)Nc2sc3c(c2C#N)CCC3)c1Cl`, the IC50 is reported as > 80 µM (inactive). Compound `CN1CCN(C(=S)C(=O)Nc2ccc(Br)cc2)CC1` has an IC50 of 57.7 µM. `CC(C)Nc1ccc(Nc2ccccc2)cc1` was tested, and the IC50 was > 80 µM (inactive). Compound `O=c1ccsn1Cc1ccccc1` has an IC50 of 57.9 µM. In the case of `Cc1cc(C(=O)O)ccc1-n1c(C)cc(C=C2C(=O)c3ccccc3C2=O)c1C`, the IC50 is reported as > 80 µM (inactive). In the case of `O=C(CSc1nc2ccccc2[nH]1)NC1CCCc2ccccc21` (stereo unspecified), the IC50 is reported as > 80 µM (inactive). `C#CCCc1cscc1/C=[N+](\[O-])c1ccc(C(=O)OCC)cc1` gave an IC50 of 36.4 µM. With `O=C1/C(=C\c2ccc([N+](=O)[O-])cc2)CS(=O)(=O)C/C1=C/c1ccc([N+](=O)[O-])cc1` the IC50 was > 80 µM (inactive). For `Cn1cc(S(=O)(=O)CC(=O)N2CCc3ccccc32)c2ccccc21`, the IC50 was > 80 µM (inactive). `COc1cccc(C(=O)Nc2nnc(S(=O)(=O)N(C)Cc3ccccc3)s2)c1` was tested, and the IC50 was 18.6 µM. With `Fc1cccc(Cl)c1CNc1ccc(N2CCCC2)cc1` the IC50 was > 80 µM (inactive). In the case of `Nc1c(O)cccc1C(=O)O`, the IC50 is reported as 40.9 µM. For `O=C(O)c1cc(N2C(=O)C=CC2=O)cc(N2C(=O)C=CC2=O)c1`, the IC50 was 19.6 µM. In the case of `O=C(Nc1ccccc1C(=O)N/N=C/c1ccco1)c1ccccc1Cl`, the IC50 is reported as > 80 µM (inactive). `COc1ccc(NC(C)C(=O)N/N=C/c2cc(Br)ccc2OC)cc1` (stereo unspecified) was tested, and the IC50 was > 80 µM (inactive). `C[n+]1c(-c2ccccc2)cc2c(=Cc3ccc([N+](=O)[O-])cc3)c3ccccc3n21` gave an IC50 of 51.5 µM. Work on `O=c1c2cc([N+](=O)[O-])ccc2sn1-c1ccccc1` yielded an IC50 of 15.9 µM. Compound `CC1N(C)c2cccc3cccc(c23)N1C` has an IC50 of 19.7 µM. For `COc1cc(Sc2ccc(C)cc2)c(OC)cc1N`, the IC50 was > 80 µM (inactive). `CC(=O)Nc1cc(OC(C)=O)c2nonc2c1OC(C)=O` was tested, and the IC50 was > 80 µM (inactive). `Cc1cccc(-n2c(=S)[nH]c3sc4c(c3c2=O)CCc2ccccc2-4)c1` showed an IC50 of 40.9 µM. With `Cc1ccc(NC(=O)Cn2sc3ccccc3c2=O)cc1` the IC50 was 14.4 µM. With `Cc1ccc2nc(SCC(=O)NC3CCCc4ccccc43)[nH]c2c1` (stereo unspecified) the IC50 was > 80 µM (inactive). For `Cc1ccc(/C=C/C(=O)Nc2ccc([N+](=O)[O-])c(NC(=O)/C=C/c3ccc(C)o3)c2)o1`, the IC50 was > 80 µM (inactive). In the case of `C=CCN1C=C2C(=O)C(C)(OC(=O)CCC(=O)OC)C(=O)C(Br)=C2C=C1c1ccc(OC)cc1` (stereo unspecified), the IC50 is reported as > 80 µM (inactive).
